Measured values published in patent publication US8124381B2, “Process and materials for production of glucosamine and N-acetylglucosamine” (Arkion Life Sciences, priority 2002, dated 2012).
Entries after “also recorded” stand apart in the source; their conditions may differ.

How the values were obtained:
[1] = target: E. coli GlmS mutant GlmS*69 (Escherichia coli, UniProt P17169); test: GlmS inhibition and Michaelis-Menten kinetics; assay type: biochemical; details: read-out: Ki (GlcN-6-P)
Procedure: (§1) Different glucosamine synthetase enzymes, including native B. subtillus GlmS, native E. coli GlmS and mutant E. coli GlmS, were studied in vitro. Cells of various E. coli strains were grown in the M9A medium, harvested, and frozen. Cells extracts were prepared and the glucosamine synthetases were characterized and compared.
(§2) Enzyme sensitivities to the reaction product glucosamine-6-P were examined. […] This figure highlights the dramatic difference between the wild type GlmS and these mutant GlmS strains.
(§3) The Mutants 2123-54 and the B. subtilis enzyme have higher Ki values (Table 6). Measured Ki constants for several of these mutants are 4 to 8 times the value for the native enzyme in strain 2123-12. From shake flask studies it is apparent that decreased sensitivity to glucosamine-6-P allows higher glucosamine levels to accumulate.
(§4) These values are slightly higher than those obtained with the native enzyme.

[2] = target: T1, E. coli GlmS mutant GlmS*124, SEQ ID NO:8 (Leu469Pro) (strain 2123-124) (Escherichia coli, UniProt P17169, L469P); test: GlmS inhibition and Michaelis-Menten kinetics; assay type: biochemical
T1 construct: made in house; host or cells: E. coli strain 2123-124, cell extract
T1 sequence (P17169 2-609 L469P): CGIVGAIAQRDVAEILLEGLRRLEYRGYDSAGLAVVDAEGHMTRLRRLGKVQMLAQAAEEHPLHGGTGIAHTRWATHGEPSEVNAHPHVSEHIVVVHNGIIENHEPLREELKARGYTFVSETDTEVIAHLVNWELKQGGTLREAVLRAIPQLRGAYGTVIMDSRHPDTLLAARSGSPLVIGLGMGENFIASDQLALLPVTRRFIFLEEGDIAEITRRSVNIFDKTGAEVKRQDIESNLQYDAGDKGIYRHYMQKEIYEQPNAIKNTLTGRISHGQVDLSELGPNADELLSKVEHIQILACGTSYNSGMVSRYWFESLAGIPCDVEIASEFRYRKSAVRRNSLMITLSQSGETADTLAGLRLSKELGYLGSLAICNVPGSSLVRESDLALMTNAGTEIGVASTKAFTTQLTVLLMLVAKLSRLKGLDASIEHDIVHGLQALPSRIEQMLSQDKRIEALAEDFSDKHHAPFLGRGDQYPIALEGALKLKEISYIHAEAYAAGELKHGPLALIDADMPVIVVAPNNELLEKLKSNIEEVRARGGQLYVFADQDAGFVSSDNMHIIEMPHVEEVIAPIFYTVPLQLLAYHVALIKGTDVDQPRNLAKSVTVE
Procedure: as §1, §2, §3, §4

[3] = target: E. coli GlmS mutant GlmS*110 (Escherichia coli, UniProt P17169); test: GlmS inhibition and Michaelis-Menten kinetics; assay type: biochemical; details: read-out: Ki (GlcN-6-P)
Chain of E. coli GlmS mutant GlmS*110 (P17169 whole entry, change not shown): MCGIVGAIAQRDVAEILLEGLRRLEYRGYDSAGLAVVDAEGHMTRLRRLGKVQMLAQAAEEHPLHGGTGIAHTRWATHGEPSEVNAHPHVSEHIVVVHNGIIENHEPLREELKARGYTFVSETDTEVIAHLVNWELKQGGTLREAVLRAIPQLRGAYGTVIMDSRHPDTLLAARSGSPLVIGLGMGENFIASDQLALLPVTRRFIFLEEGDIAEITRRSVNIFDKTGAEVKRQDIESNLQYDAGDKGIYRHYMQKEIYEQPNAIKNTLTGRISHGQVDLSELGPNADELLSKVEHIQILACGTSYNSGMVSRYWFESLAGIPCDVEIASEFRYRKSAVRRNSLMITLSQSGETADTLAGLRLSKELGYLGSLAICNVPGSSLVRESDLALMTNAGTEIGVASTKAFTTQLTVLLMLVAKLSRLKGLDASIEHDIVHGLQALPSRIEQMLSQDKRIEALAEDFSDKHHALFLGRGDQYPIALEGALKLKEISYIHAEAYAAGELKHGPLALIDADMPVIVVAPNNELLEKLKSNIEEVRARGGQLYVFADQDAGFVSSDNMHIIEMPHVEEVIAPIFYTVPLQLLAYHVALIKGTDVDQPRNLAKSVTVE
Procedure: as §1, §2, §3, §4

[4] = target: T2, E. coli GlmS mutant GlmS*72, SEQ ID NO:14 (Glu15Lys, Asp387Val, Ser450Pro, Glu525Gly) (strain 2123-72) (Escherichia coli, UniProt P17169, D387V/E15K/E525G/S450P); test: GlmS inhibition and Michaelis-Menten kinetics; assay type: biochemical
T2 construct: made in house; host or cells: E. coli strain 2123-72 (from 7101-17(DE3), plasmid with glmS*72 integrated), cell extract
T2 sequence (P17169 2-609 E15K/D387V/S450P/E525G): as the sequence (P17169 2-609 L469P) above, with E14K, D386V, S449P, P468L, E524G counted along it
Procedure: as §1, §2, §3, §4

[5] = test system: phosphoglucoisomerase (Pgi); details: cited from earlier work
[6] = target: T3, Bacillus subtilis GlmS, wild type, SEQ ID NO:16 (Bacillus subtilis, UniProt P0CI73); test: biochemical
T3 construct: made in house; host or cells: E. coli 7107-24 (7101-17(DE3) with pET24d(+)/B. subtilis glmS from ATCC23856), crude cell extract
T3 sequence (P0CI73 2-600): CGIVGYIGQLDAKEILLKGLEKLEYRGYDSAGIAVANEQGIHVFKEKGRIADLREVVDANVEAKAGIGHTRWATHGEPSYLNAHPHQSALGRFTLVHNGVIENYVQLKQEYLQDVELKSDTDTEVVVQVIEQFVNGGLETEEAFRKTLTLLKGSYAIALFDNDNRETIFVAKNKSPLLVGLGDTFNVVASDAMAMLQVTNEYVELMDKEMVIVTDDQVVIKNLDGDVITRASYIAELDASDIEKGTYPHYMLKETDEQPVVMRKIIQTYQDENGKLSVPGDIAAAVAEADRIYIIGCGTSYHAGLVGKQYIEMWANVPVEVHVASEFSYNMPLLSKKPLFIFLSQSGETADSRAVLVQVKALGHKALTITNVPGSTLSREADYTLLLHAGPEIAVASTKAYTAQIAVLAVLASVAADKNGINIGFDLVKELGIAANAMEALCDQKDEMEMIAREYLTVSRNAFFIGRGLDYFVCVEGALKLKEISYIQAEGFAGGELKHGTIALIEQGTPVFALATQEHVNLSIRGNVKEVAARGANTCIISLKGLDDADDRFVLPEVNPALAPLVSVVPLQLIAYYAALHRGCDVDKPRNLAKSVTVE
Procedure: as §1
Enzyme sensitivities to the reaction product glucosamine-6-P were examined.

[7] = target: T4, E. coli glucosamine synthase GlmS*54 (Escherichia coli, UniProt P17169, A39T/G472S/R250C); test: Effects of phosphorylated sugars on glucosamine synthase; assay type: biochemical
T4 construct: made in house; host or cells: E. coli 7107-18 (printed '7017-18'; T7-glmS*54 integrated at galK) and strains derived from it; crude extract
Procedure: (§5) Glucosamine synthetase activity was examined in the presence of various phosphorylated sugars. Crude enzyme extracts was prepared from cells of 7017-18 grown in shake flasks for 24 hours with lactose induction.

[8] = target: T5, E. coli GlmS (glucosamine-6-phosphate synthase), wild type, SEQ ID NO:2 (strain 2123-12) (Escherichia coli, UniProt P17169); test: GlmS (glucosamine synthase) inhibition and Michaelis-Menten kinetics, crude extract of strain 2123-12; assay type: biochemical
T5 construct: made in house; host or cells: E. coli strain 2123-12 (T7-glmS integrated in the chromosome), crude cell extract
T5 sequence (P17169 2-609 limits assumed): as the sequence (P17169 2-609 L469P) above, with P468L counted along it
Procedure: as §1, §2, §3, §4

[9] = target: E. coli GlmS mutant GlmS*4 (strain 2123-4) (Escherichia coli, UniProt P17169); test: GlmS sensitivity to inhibition by glucosamine-6-P; assay type: biochemical; details: 0-30 mM glucosamine-6-P; FIG. 5
Chain of E. coli GlmS mutant GlmS*4 (strain 2123-4) (P17169 whole entry, change not shown): as the sequence (P17169 whole entry, change not shown) above
Procedure: as §1, §2

[10] = target: E. coli GlmS mutant GlmS*64 (strain 2123-64) (Escherichia coli, UniProt P17169); test: GlmS sensitivity to inhibition by glucosamine-6-P; assay type: biochemical; details: 0-30 mM glucosamine-6-P; FIG. 5
Chain of E. coli GlmS mutant GlmS*64 (strain 2123-64) (P17169 whole entry, change not shown): as above
Procedure: as §1, §2

[11] = target: E. coli GlmS mutant GlmS*59 (strain 2123-59) (Escherichia coli, UniProt P17169); test: GlmS sensitivity to inhibition by glucosamine-6-P; assay type: biochemical; details: 0-30 mM glucosamine-6-P; FIG. 5
Chain of E. coli GlmS mutant GlmS*59 (strain 2123-59) (P17169 whole entry, change not shown): as above
Procedure: as §1, §2

[12] = target: phosphoglucoisomerase (Pgi) (Escherichia coli, UniProt P0A6T1); details: literature; cited from earlier work
Chain of phosphoglucoisomerase (Pgi) (Escherichia coli, UniProt P0A6T1) (P0A6T1 whole entry): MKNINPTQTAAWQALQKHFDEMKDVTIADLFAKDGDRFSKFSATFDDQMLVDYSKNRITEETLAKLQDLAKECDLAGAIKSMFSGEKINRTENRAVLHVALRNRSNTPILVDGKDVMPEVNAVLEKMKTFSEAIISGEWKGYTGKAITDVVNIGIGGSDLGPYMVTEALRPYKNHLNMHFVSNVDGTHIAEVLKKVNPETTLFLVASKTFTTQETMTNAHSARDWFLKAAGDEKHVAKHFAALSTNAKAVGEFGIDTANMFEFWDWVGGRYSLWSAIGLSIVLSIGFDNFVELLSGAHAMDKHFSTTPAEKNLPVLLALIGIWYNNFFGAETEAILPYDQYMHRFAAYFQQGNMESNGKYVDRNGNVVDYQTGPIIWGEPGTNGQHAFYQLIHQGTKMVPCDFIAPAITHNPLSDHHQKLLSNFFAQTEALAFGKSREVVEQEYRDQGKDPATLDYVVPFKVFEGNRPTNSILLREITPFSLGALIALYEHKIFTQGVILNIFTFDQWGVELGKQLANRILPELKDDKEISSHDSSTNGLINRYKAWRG

[13] = target: T6, E. coli GlmS mutant GlmS*54, SEQ ID NO:6 (Ala39Thr, Arg250Cys, Gly472Ser) (strain 2123-54) (Escherichia coli, UniProt P17169, A39T/G472S/R250C); test: GlmS inhibition and Michaelis-Menten kinetics, crude extract of strain 2123-54; assay type: biochemical
T6 construct: made in house; host or cells: E. coli strain 2123-54 (lacZ::T7-glmS*54), crude cell extract
T6 sequence (P17169 2-609 A39T/R250C/G472S): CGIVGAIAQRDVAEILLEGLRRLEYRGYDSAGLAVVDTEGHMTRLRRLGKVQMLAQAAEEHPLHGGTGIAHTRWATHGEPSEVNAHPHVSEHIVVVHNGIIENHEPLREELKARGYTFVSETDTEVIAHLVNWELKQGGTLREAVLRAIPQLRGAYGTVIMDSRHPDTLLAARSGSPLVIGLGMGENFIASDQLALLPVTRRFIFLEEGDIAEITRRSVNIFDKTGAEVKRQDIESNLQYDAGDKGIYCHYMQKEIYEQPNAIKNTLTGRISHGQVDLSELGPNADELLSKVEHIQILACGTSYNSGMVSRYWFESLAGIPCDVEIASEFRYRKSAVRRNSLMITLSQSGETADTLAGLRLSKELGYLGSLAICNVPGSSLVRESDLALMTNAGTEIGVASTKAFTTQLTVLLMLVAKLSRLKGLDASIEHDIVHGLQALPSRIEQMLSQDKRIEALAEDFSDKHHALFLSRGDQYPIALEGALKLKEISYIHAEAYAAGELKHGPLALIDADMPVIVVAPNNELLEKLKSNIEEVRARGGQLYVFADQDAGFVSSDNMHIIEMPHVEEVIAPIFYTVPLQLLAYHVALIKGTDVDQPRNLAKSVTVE
Procedure: as §1, §2, §3, §4

[14] = target: E. coli glucosamine synthase GlmS*54, SEQ ID NO:6 (Ala39Thr, Arg250Cys, Gly472Ser) (Escherichia coli, UniProt P17169, A39T/G472S/R250C); test: Effects of phosphorylated sugars on glucosamine synthase, crude extract of lactose-induced 7107-18 cells; assay type: biochemical; details: 10 mM or relatively high concentration
Chain of E. coli glucosamine synthase GlmS*54, SEQ ID NO:6 (Ala39Thr, Arg250Cys, Gly472Ser) (P17169 whole entry A39T/R250C/G472S): as the sequence (P17169 whole entry, change not shown) above, with A39T, R250C, G472S counted along it
Procedure: as §5

[15] = test system: phosphoglucoisomerase (Pgi); test: Effect of phosphorylated amino sugars on phosphoglucoisomerase activity (FIG. 15); assay type: biochemical; details: in vitro
Text: Therefore, effects of glucosamine-6-P and N-acetylglucosamine-6-P on several of the enzymes were examined.

[16] = target: glucose-6-P dehydrogenase (zwf) (Escherichia coli, UniProt P0AC53, A9V); test: Effect of phosphorylated amino sugars on glucose-6-P dehydrogenase; assay type: biochemical; details: in vitro, FIG. 16
Chain of glucose-6-P dehydrogenase (zwf) (P0AC53 whole entry A9V): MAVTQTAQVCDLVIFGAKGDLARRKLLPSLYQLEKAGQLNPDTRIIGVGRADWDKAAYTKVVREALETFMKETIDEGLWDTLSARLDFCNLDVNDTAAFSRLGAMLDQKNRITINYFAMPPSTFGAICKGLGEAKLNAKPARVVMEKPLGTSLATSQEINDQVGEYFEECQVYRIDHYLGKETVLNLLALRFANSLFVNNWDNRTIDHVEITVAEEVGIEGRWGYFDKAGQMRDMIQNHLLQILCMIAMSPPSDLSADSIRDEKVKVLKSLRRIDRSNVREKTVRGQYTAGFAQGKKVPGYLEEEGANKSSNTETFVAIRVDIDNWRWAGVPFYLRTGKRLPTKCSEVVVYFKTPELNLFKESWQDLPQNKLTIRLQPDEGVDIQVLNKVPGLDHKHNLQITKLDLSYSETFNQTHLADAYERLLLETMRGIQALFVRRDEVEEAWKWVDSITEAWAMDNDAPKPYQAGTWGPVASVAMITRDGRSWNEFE

[17] = 0-30 mM glucosamine-6-P, FIG. 5

Chain of E. coli GlmS mutant GlmS*69 (P17169 whole entry, stated change not applied): as the sequence (P17169 whole entry, change not shown) above

Which results are given for `N[C@H]1C(O)O[C@H](COP(=O)(O)O)[C@@H](O)[C@@H]1O` (stereo partly drawn) [glucosamine-6-P, glucosamine-6-phosphate]?
Ki [1]: 1500 µM; Ki [2]: 3500 µM; sensitivity to GlcN-6-P inhibition [2, 17]: reduced sensitivity to GlcN-6-P inhibition; Ki [3]: 1600 µM; Ki [4]: 1400 µM; sensitivity to GlcN-6-P inhibition [4, 17]: reduced sensitivity to GlcN-6-P inhibition; inhibition of phosphoglucoisomerase (literature) [5]: reported as an inhibitor of Pgi; also recorded: reported as an inhibitor of phosphoglucoisomerase; product resistance ([6]; 0, 2 and 4 mM glucosamine-6-P, FIG. 4): product resistance very comparable to the E. coli mutant GlmS enzymes; Ki ([6]; read-out: Ki (GlcN-6-P)): 1250 µM; activity at 10000 µM [7]: 70%; activity at 20000 µM [7]: 46%; inhibition of glucosamine synthetase (in words) [7]: strong inhibition; Ki [8]: 560 µM; inhibition at 1000 µM ([8]; read-out: loss of activity at 1 mM glucosamine-6-P): ~50%; sensitivity to GlcN-6-P inhibition [9]: reduced sensitivity to GlcN-6-P inhibition; sensitivity to GlcN-6-P inhibition [10]: reduced sensitivity to GlcN-6-P inhibition; sensitivity to GlcN-6-P inhibition [11]: reduced sensitivity to GlcN-6-P inhibition; reported inhibitor of phosphoglucoisomerase (Pgi) [12]: inhibitor; Ki [13]: 4000 µM; effect of glucosamine-6-P on enzyme activity ([13]; 1 mM glucosamine-6-P, saturating substrates): essentially has no effect on enzyme activity; remaining activity at 10000 µM ([13]; read-out: activity remaining at 10 mM glucosamine-6-P): ~50%; inhibition of glucosamine synthetase (in words) [14]: strong inhibition on glucosamine synthetase at relatively high concentration; inhibition of Pgi (in words) [15]: Inhibition is observed; inhibition of glucose-6-P dehydrogenase (zwf) [16]: more potent inhibitor of the enzyme than N-acetylglucosamine-6-P
